System: human thrombocytes (platelets)
Test: ADP-induced platelet aggregation in whole blood, impedance aggregometry (Multiplate Analyzer)
Type: cell-based
Conditions: ADP 10 μM final; two-minute pre-incubation of the metabolite in blood of an apparently healthy subject; final metabolite concentration 0.31 mg per 1 mL; approx. 73% purity; FIG. 2
Method: Example of embodiment of the effect of a metabolite produced via peroxygenase on human platelets (blood platelets).
The metabolite is present as a powder (approx. 4 mg) in a dark container and is stored in a freezer at at least −80° C. until the solution is prepared. On the day of use, the drug is dissolved in 500 μl of a suitable sterile solvent (here: phosphate-buffered saline, PBS). Powder and solvent are mixed rigorously. The complete dissolution of the powder is to be visually checked. The mixture is stored on ice or at approx. 0° C. until use.
To test the functionality of the agent, the aggregation of human thrombocytes (platelets) in whole blood is determined by impedance aggregometry (Paniccia, R.; Antonucci, E.; Maggini, N.; Romano, E.; Gori, A. M.; Marcucci, R.; Prisco, D.; Abbate, R. Assessment of Platelet Function on Whole Blood by Multiple Electrode Aggregometry in High-Risk Patients with Coronary Artery Disease Receiving Antiplatelet Therapy. American journal of clinical pathology 2009, 131, 834-42, doi:10.1309/AJCPTE3K1SGAPOIZ). For the test, approximately 5 ml of fresh whole blood is collected from a visible vein at the elbow (cubital vein) of a subject by an appropriately trained person using appropriate sterile blood collection equipment. The blood is collected into a collection vessel designed for this purpose (e.g. Sarstedt Monovette, Sarstedt, Numbrecht, Germany). […]

Structure (SMILES): COC(=O)[C@H](c1ccccc1Cl)N1CCC(S)C(=CC(=O)O)C1 (stereo partly drawn) [metabolite, 2-(1-((S)-1-(2-chlorophenyl)-2-methoxy-2-oxoethyl)-4-mercaptopiperidin-3-ylidene)acetic acid]
- ADP-induced platelet aggregation: reduction of ADP-induced platelet aggregation
